Tests used:
Assay in all cases: KINOMEscan
Type in all cases: binding
GRK3 = target: T1, GRK3 (Homo sapiens, UniProt P35626)
T1 construct: purchased Eurofins DiscoverX KINOMEscan
Method in brief: (§1)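 Binding reactions proceed for 1 h at room temperature. Kinase not bound by compound is captured on immobilized affinity ligand and quantified by qPCR; Kd is fitted over 12 half-log concentrations, top 33 μM.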

FGFR2 = target: T2, FGFR2 (Homo sapiens, UniProt P21802)
T2 construct: purchased Eurofins DiscoverX KINOMEscan
Method in brief: as §1

CLK3 = target: T3, CLK3 (Homo sapiens, UniProt P49761)
T3 construct: purchased Eurofins DiscoverX KINOMEscan
Method in brief: as §1

LCK = target: T4, LCK (Homo sapiens, UniProt P06239)
T4 construct: purchased Eurofins DiscoverX KINOMEscan
Method in brief: as §1

PAK1 = target: T5, PAK1 (Homo sapiens, UniProt Q13153)
T5 construct: purchased Eurofins DiscoverX KINOMEscan
Method in brief: as §1

STK39 = target: T6, STK39 (Homo sapiens, UniProt Q9UEW8)
T6 construct: purchased Eurofins DiscoverX KINOMEscan
Method in brief: as §1

TAOK1 = target: T7, TAOK1 (Homo sapiens, UniProt Q7L7X3)
T7 construct: purchased Eurofins DiscoverX KINOMEscan
Method in brief: as §1

MKK7 = target: T8, MKK7 (Homo sapiens, UniProt O14733)
T8 construct: purchased Eurofins DiscoverX KINOMEscan
Method in brief: as §1

VRK2 = target: T9, VRK2 (Homo sapiens, UniProt Q86Y07)
T9 construct: purchased Eurofins DiscoverX KINOMEscan
Method in brief: as §1

GSK3A = target: T10, GSK3A (Homo sapiens, UniProt P49840)
T10 construct: purchased Eurofins DiscoverX KINOMEscan
Method in brief: as §1

ERK1 = target: T11, ERK1 (Homo sapiens, UniProt P27361)
T11 construct: purchased Eurofins DiscoverX KINOMEscan
Method in brief: as §1

[1] = target: T12, RPS6KA4 (Kin. Dom.2-C-term.) (Homo sapiens, UniProt O75676)
T12 construct: RPS6KA4 (Kin. Dom.2-C-term.); purchased Eurofins DiscoverX KINOMEscan
Method in brief: as §1

JAK1 (JH1domain-cat.) = target: T13, JAK1 (JH1domain-cat.) (Homo sapiens, UniProt P23458)
T13 construct: JAK1 (JH1domain-cat.); purchased Eurofins DiscoverX KINOMEscan
Method in brief: as §1

MTOR = target: T14, MTOR (Homo sapiens, UniProt P42345)
T14 construct: purchased Eurofins DiscoverX KINOMEscan
Method in brief: as §1

PIK3CA (E542K) = target: T15, PIK3CA (E542K) (Homo sapiens, UniProt P42336, E542K)
T15 construct: purchased Eurofins DiscoverX KINOMEscan
Method in brief: as §1

PIP5K2B = target: T16, PIP5K2B (Homo sapiens, UniProt P78356)
T16 construct: purchased Eurofins DiscoverX KINOMEscan
Method in brief: as §1

DCAMKL3 = target: T17, DCAMKL3 (Homo sapiens, UniProt Q9C098)
T17 construct: purchased Eurofins DiscoverX KINOMEscan
Method in brief: as §1

AXL = target: T18, AXL (Homo sapiens, UniProt P30530)
T18 construct: purchased Eurofins DiscoverX KINOMEscan
Method in brief: as §1

SGK3 = target: T19, SGK3 (Homo sapiens, UniProt Q96BR1)
T19 construct: purchased Eurofins DiscoverX KINOMEscan
Method in brief: as §1

ADCK4 = target: T20, ADCK4 (Homo sapiens, UniProt Q96D53)
T20 construct: purchased Eurofins DiscoverX KINOMEscan
Method in brief: as §1

GRK7 = target: T21, GRK7 (Homo sapiens, UniProt Q8WTQ7)
T21 construct: purchased Eurofins DiscoverX KINOMEscan
Method in brief: as §1

PIK3CA (I800L) = target: T22, PIK3CA (I800L) (Homo sapiens, UniProt P42336, I800L)
T22 construct: purchased Eurofins DiscoverX KINOMEscan
Method in brief: as §1

DMPK = target: T23, DMPK (Homo sapiens, UniProt Q09013)
T23 construct: purchased Eurofins DiscoverX KINOMEscan
Method in brief: as §1

MYLK4 = target: T24, MYLK4 (Homo sapiens, UniProt Q86YV6)
T24 construct: purchased Eurofins DiscoverX KINOMEscan
Method in brief: as §1

ABL1-P = target: T25, ABL1-P (Homo sapiens, UniProt P00519)
T25 construct: purchased Eurofins DiscoverX KINOMEscan
Method in brief: as §1

TGFBR2 = target: T26, TGFBR2 (Homo sapiens, UniProt P37173)
T26 construct: purchased Eurofins DiscoverX KINOMEscan
Method in brief: as §1

MKNK2 = target: T27, MKNK2 (Homo sapiens, UniProt Q9HBH9)
T27 construct: purchased Eurofins DiscoverX KINOMEscan
Method in brief: as §1

FLT3 (D835V) = target: T28, FLT3 (D835V) (Homo sapiens, UniProt P36888, D835V)
T28 construct: purchased Eurofins DiscoverX KINOMEscan
Method in brief: as §1

BRSK1 = target: T29, BRSK1 (Homo sapiens, UniProt Q8TDC3)
T29 construct: purchased Eurofins DiscoverX KINOMEscan
Method in brief: as §1

CHEK2 = target: T30, CHEK2 (Homo sapiens, UniProt O96017)
T30 construct: purchased Eurofins DiscoverX KINOMEscan
Method in brief: as §1

JNK1 = target: T31, JNK1 (Homo sapiens, UniProt P45983)
T31 construct: purchased Eurofins DiscoverX KINOMEscan
Method in brief: as §1

CDK4-cyclinD3 = target: T32, CDK4-cyclinD3 (Homo sapiens, UniProt P11802)
T32 construct: purchased Eurofins DiscoverX KINOMEscan
Method in brief: as §1

PAK6 = target: T33, PAK6 (Homo sapiens, UniProt Q9NQU5)
T33 construct: purchased Eurofins DiscoverX KINOMEscan
Method in brief: as §1

IRAK4 = target: T34, IRAK4 (Homo sapiens, UniProt Q9NWZ3)
T34 construct: purchased Eurofins DiscoverX KINOMEscan
Method in brief: as §1

MST2 = target: T35, MST2 (Homo sapiens, UniProt Q13188)
T35 construct: purchased Eurofins DiscoverX KINOMEscan
Method in brief: as §1

ADCK3 = target: T36, ADCK3 (Homo sapiens, UniProt Q8NI60)
T36 construct: purchased Eurofins DiscoverX KINOMEscan
Method in brief: as §1

ACVRL1 = target: T37, ACVRL1 (Homo sapiens, UniProt P37023)
T37 construct: purchased Eurofins DiscoverX KINOMEscan
Method in brief: as §1

CDKL2 = target: T38, CDKL2 (Homo sapiens, UniProt Q92772)
T38 construct: purchased Eurofins DiscoverX KINOMEscan
Method in brief: as §1

TRKA = target: T39, TRKA (Homo sapiens, UniProt P04629)
T39 construct: purchased Eurofins DiscoverX KINOMEscan
Method in brief: as §1

T8 sequence (O14733 whole entry): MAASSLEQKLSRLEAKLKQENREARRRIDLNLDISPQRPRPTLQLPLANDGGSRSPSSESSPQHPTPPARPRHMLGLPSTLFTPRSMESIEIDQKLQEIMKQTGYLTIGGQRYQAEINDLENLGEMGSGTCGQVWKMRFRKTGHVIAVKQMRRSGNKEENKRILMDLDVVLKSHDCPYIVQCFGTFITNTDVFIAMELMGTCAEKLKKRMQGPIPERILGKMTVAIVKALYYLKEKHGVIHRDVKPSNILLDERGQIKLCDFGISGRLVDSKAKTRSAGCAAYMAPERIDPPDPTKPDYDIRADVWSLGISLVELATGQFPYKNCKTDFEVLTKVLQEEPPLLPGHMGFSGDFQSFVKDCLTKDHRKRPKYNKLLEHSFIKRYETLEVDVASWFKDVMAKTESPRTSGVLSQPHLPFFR
T15 sequence (P42336 whole entry E542K): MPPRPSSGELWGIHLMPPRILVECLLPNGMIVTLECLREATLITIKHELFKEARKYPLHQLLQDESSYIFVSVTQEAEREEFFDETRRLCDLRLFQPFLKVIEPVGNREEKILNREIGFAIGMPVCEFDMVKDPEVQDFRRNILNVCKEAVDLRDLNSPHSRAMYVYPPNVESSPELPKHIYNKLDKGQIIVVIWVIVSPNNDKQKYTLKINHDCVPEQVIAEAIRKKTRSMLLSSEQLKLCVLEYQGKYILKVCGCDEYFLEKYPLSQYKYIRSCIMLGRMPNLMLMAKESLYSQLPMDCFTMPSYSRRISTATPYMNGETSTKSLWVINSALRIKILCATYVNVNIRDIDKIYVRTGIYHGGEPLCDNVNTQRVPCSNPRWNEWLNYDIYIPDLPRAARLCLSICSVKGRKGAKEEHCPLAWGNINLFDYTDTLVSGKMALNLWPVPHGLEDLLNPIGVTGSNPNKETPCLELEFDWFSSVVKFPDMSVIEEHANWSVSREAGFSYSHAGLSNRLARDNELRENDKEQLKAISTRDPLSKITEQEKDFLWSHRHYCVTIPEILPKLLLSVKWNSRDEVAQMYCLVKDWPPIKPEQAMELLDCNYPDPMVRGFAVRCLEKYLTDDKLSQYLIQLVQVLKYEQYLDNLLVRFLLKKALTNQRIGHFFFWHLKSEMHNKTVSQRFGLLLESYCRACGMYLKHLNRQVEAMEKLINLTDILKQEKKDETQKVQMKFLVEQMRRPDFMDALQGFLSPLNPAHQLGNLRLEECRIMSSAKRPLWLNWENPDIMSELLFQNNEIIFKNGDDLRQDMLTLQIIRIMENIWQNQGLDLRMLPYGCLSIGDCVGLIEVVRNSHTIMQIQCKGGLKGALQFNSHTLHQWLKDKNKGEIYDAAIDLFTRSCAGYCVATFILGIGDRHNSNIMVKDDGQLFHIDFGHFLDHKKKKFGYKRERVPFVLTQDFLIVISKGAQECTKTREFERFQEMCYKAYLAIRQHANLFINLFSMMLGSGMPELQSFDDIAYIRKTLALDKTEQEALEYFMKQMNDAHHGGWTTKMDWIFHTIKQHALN
T7 sequence (Q7L7X3 whole entry): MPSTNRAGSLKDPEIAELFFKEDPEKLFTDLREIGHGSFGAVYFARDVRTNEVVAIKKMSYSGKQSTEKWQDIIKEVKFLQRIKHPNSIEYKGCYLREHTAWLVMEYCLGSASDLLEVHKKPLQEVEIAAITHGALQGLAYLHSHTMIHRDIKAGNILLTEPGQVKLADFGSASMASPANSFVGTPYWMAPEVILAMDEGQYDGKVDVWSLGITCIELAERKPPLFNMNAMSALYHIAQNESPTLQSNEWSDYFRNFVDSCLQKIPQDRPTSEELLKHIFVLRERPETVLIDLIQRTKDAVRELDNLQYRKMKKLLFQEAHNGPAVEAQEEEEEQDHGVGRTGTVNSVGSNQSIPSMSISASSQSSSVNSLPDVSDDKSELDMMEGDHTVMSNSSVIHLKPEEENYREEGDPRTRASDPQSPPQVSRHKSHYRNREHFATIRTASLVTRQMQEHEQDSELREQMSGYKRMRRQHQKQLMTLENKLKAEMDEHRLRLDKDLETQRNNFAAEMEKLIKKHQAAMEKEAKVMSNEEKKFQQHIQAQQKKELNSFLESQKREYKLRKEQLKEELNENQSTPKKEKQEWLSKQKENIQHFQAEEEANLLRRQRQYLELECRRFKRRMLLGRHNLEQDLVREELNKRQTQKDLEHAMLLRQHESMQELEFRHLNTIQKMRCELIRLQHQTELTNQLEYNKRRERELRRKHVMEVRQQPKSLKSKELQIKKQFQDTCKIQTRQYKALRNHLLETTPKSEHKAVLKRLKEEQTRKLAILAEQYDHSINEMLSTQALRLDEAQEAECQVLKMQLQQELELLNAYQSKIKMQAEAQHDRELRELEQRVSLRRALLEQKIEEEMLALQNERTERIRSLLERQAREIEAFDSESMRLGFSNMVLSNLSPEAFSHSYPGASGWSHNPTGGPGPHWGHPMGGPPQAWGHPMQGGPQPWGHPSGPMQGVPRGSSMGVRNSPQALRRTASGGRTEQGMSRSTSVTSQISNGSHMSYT
T23 sequence (Q09013 whole entry): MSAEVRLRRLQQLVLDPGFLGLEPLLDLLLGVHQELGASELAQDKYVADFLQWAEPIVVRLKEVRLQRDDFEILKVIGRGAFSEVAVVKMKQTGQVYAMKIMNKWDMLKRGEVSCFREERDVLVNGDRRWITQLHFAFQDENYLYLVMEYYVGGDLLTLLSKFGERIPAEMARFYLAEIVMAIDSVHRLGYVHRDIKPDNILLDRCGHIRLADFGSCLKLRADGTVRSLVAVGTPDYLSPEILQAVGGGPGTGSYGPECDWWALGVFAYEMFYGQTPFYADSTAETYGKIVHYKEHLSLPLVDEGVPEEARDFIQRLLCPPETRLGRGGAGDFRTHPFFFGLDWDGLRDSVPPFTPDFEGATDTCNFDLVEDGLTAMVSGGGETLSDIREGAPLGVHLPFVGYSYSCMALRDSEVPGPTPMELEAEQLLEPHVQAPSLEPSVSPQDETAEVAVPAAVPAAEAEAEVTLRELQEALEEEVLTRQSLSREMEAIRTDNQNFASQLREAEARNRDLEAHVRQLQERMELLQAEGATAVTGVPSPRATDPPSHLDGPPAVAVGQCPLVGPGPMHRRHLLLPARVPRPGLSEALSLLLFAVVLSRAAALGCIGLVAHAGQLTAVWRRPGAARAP
T32 sequence (P11802 whole entry): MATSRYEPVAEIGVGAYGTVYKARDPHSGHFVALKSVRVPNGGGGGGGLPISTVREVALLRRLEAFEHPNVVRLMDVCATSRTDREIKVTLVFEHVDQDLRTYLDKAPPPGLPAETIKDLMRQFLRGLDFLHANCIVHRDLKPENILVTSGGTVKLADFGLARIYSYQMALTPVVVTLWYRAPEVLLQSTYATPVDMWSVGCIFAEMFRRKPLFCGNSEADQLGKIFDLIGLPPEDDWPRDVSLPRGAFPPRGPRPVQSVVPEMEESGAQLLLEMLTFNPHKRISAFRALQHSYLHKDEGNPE
T32 sequence (P30281 whole entry partner): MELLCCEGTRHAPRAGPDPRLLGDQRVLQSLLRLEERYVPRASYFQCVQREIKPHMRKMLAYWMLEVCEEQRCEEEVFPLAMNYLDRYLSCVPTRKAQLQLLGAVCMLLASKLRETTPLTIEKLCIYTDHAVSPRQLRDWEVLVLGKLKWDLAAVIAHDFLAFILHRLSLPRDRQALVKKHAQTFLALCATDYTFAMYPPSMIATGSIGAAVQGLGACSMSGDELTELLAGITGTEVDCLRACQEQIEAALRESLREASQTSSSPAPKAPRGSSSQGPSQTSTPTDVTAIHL
T26 sequence (P37173 23-567): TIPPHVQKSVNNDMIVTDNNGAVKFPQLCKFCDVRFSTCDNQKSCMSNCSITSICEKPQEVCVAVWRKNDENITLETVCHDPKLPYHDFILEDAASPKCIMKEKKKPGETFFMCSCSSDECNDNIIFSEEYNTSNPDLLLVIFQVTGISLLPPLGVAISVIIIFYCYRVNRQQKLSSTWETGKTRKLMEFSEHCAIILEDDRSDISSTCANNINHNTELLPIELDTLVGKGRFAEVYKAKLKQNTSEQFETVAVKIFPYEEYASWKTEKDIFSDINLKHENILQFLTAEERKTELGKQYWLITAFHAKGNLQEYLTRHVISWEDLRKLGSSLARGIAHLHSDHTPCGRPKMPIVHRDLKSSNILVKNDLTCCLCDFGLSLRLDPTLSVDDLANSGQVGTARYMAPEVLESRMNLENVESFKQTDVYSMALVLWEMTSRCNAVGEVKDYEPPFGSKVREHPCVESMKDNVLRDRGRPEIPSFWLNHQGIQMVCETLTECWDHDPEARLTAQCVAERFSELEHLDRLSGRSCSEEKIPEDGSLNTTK
T29 sequence (Q8TDC3 whole entry): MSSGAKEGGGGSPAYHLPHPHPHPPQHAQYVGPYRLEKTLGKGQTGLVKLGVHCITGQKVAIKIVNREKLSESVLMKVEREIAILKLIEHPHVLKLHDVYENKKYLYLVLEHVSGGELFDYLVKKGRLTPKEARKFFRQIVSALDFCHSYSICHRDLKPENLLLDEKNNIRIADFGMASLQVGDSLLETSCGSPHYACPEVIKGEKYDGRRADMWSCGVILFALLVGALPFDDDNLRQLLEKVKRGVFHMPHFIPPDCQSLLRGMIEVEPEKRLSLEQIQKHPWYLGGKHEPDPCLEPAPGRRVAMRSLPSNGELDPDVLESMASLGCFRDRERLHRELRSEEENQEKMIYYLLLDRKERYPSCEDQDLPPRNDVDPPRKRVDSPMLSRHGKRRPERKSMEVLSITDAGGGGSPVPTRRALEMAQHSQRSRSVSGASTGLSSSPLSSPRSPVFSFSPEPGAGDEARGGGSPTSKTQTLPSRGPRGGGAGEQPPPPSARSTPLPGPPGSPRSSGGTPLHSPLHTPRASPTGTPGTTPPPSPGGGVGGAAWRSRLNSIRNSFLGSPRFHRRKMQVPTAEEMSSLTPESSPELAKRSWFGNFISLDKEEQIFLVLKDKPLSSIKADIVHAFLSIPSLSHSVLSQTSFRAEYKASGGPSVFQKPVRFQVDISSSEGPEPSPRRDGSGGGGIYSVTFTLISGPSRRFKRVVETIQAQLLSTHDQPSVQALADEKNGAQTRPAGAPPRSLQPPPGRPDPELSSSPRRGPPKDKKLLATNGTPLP

In the case of `O=C1Nc2c(cc([N+](=O)[O-])c3c2CCCC3)C1=NO` [Compound 5d, 3-(Hydroxyimino)-5-nitro-1,3,6,7,8,9-hexahydro-2H-benzo[g]indol-2-one], the inhibition at 10 µM (GRK3) is reported as 77%, the inhibition at 10 µM (FGFR2) is reported as 19% and the inhibition at 10 µM (CLK3) is reported as 19%. For the same compound, the inhibition at 10 µM (LCK) was 29%, the inhibition at 10 µM (PAK1) was 0% and the inhibition at 10 µM (STK39) was 53%. For the same compound, the inhibition at 10 µM (TAOK1) was 62%, the inhibition at 10 µM (MKK7) was 0% and the “Inhib. (%)” value (MKK7; 10 μM) was “inactive”. It also gave an inhibition at 10 µM (VRK2) of 0%, an inhibition at 10 µM (GSK3A) of 57% and an inhibition at 10 µM (ERK1) of 0%. It also gave an inhibition at 10 µM [1] of 89.3%, an inhibition at 10 µM (JAK1 (JH1domain-cat.)) of 0% and an inhibition at 10 µM (MTOR) of 56%. For the same compound, the inhibition at 10 µM (PIK3CA (E542K)) was 43%, the inhibition at 10 µM (PIP5K2B) was 64% and the inhibition at 10 µM (DCAMKL3) was 10%. The inhibition at 10 µM (AXL) was 17%, the inhibition at 10 µM (SGK3) was 55% and the inhibition at 10 µM (ADCK4) was 12%. It also gave an inhibition at 10 µM (GRK7) of 43%, an inhibition at 10 µM (PIK3CA (I800L)) of 5% and an inhibition at 10 µM (DMPK) of 49%. For the same compound, the inhibition at 10 µM (MYLK4) was 7%, the inhibition at 10 µM (ABL1-P) was 46% and the inhibition at 10 µM (TGFBR2) was 24%. It also gave an inhibition at 10 µM (MKNK2) of 93.2%, an inhibition at 10 µM (FLT3 (D835V)) of 72% and an inhibition at 10 µM (BRSK1) of 36%. It also gave an inhibition at 10 µM (CHEK2) of 48%, an inhibition at 10 µM (JNK1) of 76% and an inhibition at 10 µM (CDK4-cyclinD3) of 22%. It also gave an inhibition at 10 µM (PAK6) of 39%, an inhibition at 10 µM (IRAK4) of 86% and an inhibition at 10 µM (MST2) of 39%. The inhibition at 10 µM (ADCK3) was 12%, the inhibition at 10 µM (ACVRL1) was 0% and the inhibition at 10 µM (CDKL2) was 13%. The inhibition at 10 µM (TRKA) was 0%.

Source: PMC12300041, “Tricyclic Isatin Derivatives as Anti-Inflammatory Compounds with High Kinase Binding Affinity” (Molecules, 2025)
